In series [1] the target is T1, 15-LO-2 (Homo sapiens, UniProt O15296).
T1 sequence (O15296 1-676): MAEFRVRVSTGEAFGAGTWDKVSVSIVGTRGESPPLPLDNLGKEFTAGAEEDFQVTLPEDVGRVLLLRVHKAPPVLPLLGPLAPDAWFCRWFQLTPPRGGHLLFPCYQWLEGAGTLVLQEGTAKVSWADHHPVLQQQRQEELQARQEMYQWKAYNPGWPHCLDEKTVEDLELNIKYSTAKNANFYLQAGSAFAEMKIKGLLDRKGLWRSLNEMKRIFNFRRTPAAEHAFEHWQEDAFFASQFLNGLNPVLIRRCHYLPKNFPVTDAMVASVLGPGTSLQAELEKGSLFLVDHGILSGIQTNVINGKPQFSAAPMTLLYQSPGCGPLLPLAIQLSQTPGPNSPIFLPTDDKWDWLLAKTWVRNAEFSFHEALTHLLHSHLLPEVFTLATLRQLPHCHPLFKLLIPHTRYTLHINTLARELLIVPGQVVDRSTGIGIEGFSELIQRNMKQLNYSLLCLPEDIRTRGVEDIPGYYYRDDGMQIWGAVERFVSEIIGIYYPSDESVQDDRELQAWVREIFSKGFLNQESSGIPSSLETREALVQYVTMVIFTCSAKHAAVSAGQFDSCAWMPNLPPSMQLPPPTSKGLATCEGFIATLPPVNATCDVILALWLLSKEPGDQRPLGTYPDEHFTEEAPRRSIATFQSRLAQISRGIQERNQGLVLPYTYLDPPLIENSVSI
Kind of series: 15-LO-2 inhibition assay, Cerep (Method A, fluorometry). The series is classed as biochemical. The conditions noted are these: control.

In series [2] the target is T2, 5-LO (Homo sapiens, UniProt P09917).
T2 sequence (P09917 1-674): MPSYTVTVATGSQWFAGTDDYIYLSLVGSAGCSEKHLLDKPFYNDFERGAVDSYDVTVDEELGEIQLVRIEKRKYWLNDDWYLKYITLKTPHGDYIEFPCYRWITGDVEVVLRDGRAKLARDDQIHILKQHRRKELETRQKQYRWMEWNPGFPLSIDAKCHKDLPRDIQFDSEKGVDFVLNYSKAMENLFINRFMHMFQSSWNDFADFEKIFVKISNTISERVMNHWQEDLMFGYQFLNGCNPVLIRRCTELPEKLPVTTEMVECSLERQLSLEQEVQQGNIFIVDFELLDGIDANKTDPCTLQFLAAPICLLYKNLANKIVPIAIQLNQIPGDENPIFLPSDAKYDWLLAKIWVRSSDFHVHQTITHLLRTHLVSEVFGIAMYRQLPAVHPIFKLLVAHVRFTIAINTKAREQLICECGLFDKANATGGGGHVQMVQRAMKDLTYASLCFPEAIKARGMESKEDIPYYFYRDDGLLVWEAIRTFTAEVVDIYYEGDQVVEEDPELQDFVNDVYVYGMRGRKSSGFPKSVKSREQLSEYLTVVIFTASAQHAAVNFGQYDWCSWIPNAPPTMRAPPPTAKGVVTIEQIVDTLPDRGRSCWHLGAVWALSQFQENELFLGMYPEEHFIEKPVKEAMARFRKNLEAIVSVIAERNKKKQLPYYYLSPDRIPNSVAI
Briefly: 5-LO inhibition assay, Cerep (Method A, indirect fluorogenic readout, Rhodamine 123). The conditions noted are these: 5-LO. In kind it is biochemical.

The target of series [3] is T3, EP3 (Homo sapiens, UniProt P43115).
T3 sequence (P43115 1-390): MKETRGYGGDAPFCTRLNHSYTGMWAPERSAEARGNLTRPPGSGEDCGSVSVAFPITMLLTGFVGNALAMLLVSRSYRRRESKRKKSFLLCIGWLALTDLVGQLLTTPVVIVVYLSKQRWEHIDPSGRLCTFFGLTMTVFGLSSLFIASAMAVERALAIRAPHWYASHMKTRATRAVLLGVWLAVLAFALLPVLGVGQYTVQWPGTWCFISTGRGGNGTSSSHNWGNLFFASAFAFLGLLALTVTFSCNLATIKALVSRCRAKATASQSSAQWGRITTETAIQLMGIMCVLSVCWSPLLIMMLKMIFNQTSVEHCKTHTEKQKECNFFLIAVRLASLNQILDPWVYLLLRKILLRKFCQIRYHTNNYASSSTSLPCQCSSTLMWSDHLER
Briefly: EP3 functional antagonist assay, Cerep (sulprostone 0.1 nM, impedance). The conditions noted are these: EP3 concentration–inhibition curve; n = 2.

The target of series [4] is PDE5 (Homo sapiens, UniProt O76074). Briefly: Phosphodiesterase 5 inhibition assay, Cerep (scintillation counting). In kind it is biochemical. The conditions noted are these: PDE5; control.
Series [5] addresses TRPV1 (Homo sapiens, UniProt Q8NER1). Briefly: TRPV1 functional agonist assay, Cerep (intracellular Ca2+). In kind it is cell-based.
The target in series [6] is T4, TRPM8 (Homo sapiens, UniProt Q7Z2W7).
T4 construct: Cerep, SA (fee-for-service assay) printed G018533 (citation number 33 glued on)
Kind of series: TRPM8 functional agonist assay, Cerep (intracellular Ca2+). The series is classed as cell-based.

Series [7] can be described thus: Dynamic light scattering (colloidal aggregation). In kind it is physicochemical. The conditions noted are these: 25 °C.
Series [8] deals with T3, EP3. Kind of series: EP3 functional agonist assay, Cerep (impedance).
Series [9] concerns the target EP2 (Homo sapiens, UniProt P43116). Kind of series: EP2 functional agonist assay, Cerep (cAMP, HTRF). (In general: In TR-FRET formats the signal depends on donor and acceptor labels being close together.)
Series [10] concerns the target EP4 (Homo sapiens, UniProt P35408). Briefly: EP4 functional agonist assay, Cerep (cAMP, HTRF).
Series [11] has as its target T5, EP1 (Homo sapiens, UniProt P34995).
T5 sequence (P34995 1-402): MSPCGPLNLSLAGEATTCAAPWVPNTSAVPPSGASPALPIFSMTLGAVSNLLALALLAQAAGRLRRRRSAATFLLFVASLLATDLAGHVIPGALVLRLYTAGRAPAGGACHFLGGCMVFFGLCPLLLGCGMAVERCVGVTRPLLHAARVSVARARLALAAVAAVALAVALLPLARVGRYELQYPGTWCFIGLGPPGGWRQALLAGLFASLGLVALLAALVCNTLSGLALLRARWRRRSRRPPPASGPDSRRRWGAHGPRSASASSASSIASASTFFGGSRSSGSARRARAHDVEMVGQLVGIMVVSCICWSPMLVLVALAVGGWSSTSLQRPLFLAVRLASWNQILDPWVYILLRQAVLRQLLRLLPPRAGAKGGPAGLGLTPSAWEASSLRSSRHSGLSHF
Briefly: EP1 functional agonist assay, Cerep (intracellular Ca2+).

Series [12] concerns the target SIK (Homo sapiens, UniProt P57059). Kind of series: ExpresS Diversity Kinase Profile, Cerep (LANCE): SIK. The conditions noted are these: control. In kind it is biochemical.
Series [13] addresses p38α (Homo sapiens, UniProt Q16539). Kind of series: ExpresS Diversity Kinase Profile, Cerep (LANCE): p38α. In kind it is biochemical. The conditions noted are these: control.
The mark [14] stands for this setting: n = 2, read-out: % inhibition of control values, Mean.
[15] abbreviates: read-out: % inhibition of control values, 1st measure.
The mark [16] stands for this setting: read-out: % inhibition of control values, 2nd measure.
Setting [17] is: read-out: % of control values, 1st measurement.
The mark [18] stands for this setting: read-out: % of control values, 2nd measurement.
Setting [19] is: read-out: % of control values, Mean.

Like-named read-outs stand apart in the source and are kept apart here.

T4 sequence (Q7Z2W7 whole entry): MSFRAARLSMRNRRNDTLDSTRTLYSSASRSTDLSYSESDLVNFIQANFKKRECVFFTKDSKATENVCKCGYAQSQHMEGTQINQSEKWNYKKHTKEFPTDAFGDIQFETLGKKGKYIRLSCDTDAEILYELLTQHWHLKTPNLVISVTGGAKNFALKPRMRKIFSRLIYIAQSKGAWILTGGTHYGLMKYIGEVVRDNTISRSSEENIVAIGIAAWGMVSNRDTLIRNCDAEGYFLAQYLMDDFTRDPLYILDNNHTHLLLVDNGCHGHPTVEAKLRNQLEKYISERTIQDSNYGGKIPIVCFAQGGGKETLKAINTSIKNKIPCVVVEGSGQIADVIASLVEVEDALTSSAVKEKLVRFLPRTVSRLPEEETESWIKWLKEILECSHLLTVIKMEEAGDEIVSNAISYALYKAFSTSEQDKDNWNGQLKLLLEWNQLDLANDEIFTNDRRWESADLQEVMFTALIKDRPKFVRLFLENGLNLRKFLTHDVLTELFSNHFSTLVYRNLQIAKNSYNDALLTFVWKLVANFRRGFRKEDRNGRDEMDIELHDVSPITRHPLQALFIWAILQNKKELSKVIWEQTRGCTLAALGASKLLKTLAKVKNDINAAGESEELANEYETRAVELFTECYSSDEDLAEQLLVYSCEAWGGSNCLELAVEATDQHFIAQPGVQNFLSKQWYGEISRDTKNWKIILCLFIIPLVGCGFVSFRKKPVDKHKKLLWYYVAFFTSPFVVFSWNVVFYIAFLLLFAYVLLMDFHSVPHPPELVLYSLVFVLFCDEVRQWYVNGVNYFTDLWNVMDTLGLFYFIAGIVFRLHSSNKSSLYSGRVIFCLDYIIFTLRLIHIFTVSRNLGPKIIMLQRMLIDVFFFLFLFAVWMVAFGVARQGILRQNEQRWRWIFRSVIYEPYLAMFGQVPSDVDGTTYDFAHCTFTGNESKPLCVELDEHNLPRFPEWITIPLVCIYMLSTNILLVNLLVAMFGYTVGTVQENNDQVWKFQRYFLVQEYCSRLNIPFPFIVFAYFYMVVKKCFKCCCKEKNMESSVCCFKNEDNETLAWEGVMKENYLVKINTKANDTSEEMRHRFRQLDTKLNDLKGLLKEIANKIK
Sequence of EP4 (P35408 whole entry): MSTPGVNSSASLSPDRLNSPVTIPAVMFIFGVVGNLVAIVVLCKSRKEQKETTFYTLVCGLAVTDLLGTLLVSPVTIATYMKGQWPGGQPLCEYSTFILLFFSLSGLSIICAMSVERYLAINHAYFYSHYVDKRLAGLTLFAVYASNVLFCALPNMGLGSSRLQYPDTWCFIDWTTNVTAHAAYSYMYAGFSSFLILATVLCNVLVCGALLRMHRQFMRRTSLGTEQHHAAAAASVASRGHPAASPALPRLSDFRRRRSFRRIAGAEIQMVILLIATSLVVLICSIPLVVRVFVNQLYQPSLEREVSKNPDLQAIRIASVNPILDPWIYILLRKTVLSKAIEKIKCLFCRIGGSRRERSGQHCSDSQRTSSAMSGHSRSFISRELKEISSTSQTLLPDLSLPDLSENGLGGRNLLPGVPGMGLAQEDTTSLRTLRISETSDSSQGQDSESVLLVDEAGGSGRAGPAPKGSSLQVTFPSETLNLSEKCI
Sequence of EP2 (P43116 whole entry): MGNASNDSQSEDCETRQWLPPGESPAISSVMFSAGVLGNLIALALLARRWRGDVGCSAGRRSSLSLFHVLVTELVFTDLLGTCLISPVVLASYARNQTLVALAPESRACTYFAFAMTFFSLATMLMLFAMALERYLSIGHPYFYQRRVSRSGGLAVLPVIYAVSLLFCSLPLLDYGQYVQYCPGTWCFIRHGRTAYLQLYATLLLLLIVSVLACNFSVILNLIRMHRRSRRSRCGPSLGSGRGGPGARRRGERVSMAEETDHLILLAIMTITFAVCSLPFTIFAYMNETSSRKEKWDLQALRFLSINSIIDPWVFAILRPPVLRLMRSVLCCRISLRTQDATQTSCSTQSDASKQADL
Sequence of TRPV1 (Q8NER1 whole entry): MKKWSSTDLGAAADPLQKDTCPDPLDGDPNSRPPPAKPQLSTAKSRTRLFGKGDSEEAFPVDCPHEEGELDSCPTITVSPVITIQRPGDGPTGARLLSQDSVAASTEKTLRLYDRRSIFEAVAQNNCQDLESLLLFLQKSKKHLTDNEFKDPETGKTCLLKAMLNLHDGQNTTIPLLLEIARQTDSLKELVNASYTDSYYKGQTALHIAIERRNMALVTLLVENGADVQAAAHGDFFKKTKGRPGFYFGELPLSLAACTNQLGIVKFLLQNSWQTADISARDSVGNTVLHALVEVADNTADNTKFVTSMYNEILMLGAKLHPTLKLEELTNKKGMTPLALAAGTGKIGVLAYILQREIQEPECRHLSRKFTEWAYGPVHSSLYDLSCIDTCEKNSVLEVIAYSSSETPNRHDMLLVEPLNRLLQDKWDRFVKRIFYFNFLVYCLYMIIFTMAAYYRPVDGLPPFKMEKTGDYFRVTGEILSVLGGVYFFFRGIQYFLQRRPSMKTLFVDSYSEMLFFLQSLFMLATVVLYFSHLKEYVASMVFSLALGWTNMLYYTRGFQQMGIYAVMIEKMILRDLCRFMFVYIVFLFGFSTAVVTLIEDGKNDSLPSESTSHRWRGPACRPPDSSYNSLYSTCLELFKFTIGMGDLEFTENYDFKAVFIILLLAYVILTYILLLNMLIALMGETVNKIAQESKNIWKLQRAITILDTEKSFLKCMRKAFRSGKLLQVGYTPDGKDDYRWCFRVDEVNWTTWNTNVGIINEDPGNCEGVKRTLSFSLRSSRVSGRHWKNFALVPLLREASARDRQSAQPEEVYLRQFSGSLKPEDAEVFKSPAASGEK
Sequence of p38α (Q16539 whole entry): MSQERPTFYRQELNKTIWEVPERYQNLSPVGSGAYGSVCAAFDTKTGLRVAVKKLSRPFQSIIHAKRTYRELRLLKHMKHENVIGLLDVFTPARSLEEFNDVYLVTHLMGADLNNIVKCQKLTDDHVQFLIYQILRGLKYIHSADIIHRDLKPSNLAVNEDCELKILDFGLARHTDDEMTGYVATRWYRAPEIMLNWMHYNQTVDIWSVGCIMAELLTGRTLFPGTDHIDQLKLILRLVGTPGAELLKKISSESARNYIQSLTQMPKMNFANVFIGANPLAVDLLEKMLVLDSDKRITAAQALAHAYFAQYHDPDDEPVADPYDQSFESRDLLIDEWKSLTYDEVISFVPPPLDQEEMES
Sequence of SIK (P57059 whole entry): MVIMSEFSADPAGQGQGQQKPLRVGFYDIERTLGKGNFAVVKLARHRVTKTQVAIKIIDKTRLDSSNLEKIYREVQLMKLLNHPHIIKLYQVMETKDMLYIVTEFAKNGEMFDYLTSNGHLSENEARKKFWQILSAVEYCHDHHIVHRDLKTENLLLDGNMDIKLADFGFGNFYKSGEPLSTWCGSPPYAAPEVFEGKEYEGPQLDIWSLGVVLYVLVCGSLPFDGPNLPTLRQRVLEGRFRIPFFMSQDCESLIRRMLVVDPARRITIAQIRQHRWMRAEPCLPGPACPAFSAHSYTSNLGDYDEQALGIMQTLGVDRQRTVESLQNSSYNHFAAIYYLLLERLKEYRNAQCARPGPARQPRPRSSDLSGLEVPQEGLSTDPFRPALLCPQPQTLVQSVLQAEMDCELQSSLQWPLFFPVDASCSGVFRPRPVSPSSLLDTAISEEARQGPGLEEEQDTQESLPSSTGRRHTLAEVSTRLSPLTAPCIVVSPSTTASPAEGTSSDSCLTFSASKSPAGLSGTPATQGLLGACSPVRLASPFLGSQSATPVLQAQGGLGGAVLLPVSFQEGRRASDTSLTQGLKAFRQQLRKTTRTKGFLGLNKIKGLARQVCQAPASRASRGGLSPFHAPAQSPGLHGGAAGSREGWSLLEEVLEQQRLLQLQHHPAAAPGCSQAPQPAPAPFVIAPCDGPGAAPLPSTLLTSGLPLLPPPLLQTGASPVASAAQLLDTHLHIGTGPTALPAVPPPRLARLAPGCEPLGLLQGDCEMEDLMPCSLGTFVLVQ

Consider `N#C/C(=C\c1ccc(O)c(O)c1)C(=O)OCCc1cccs1` [Compound 2-TEDC, reference compound], for which the nHill in [1] is listed as 0.7.

For `CC1(C)OC2=C(C(=O)C(=O)c3ccccc32)C1Nc1ccccc1` (stereo not drawn) [Compound 2], the results for the inhibition at 5 µM in [2] (setting [14]), in series [2] (setting [15]) and in [2] (setting [16]) were 32.2%, 42.2% and 22.2%, respectively.

On to `CC1(C)OC2=C(C(=O)C(=O)c3ccccc32)C1Nc1ccc(Cl)cc1` (stereo not drawn) [Compound 3], for which the inhibition at 5 µM in series [2] (setting [14]) was determined as 31.1%; in series [2] (setting [15]), 33.1%; in series [2] (setting [16]), 29%.

As for `CC1(C)OC2=C(C(=O)C(=O)c3ccccc32)C1O` (stereo not drawn) [Compound 4], the figures for the inhibition at 5 µM in series [2] (setting [14]), in series [2] (setting [15]) and in series [2] (setting [16]) were 72.8%, 77.4% and 68.2%, respectively.

`CC1(C)OC2=C(CC1O)C(=O)C(=O)c1ccccc12` (stereo not drawn) [Compound 5]: the figures for the inhibition at 5 µM in series [2] (setting [14]), in [2] (setting [15]) and in series [2] (setting [16]) were 41.1%, 47.2% and 35.5%, respectively.

Turning to `CC1(C)OC2=C(C(=O)C(=O)c3ccccc32)C1Nc1ccc(C(=O)/C=C/c2ccccc2)cc1` (stereo not drawn) [Compound 6], the inhibition at 5 µM in series [2] (setting [14]) was 54.8%; in [2] (setting [15]), 51.5%; in series [2] (setting [16]) it was 58.1%.

`CC(=O)OCC1OC(OCc2cn(CC3C4=C(OC3(C)C)c3ccccc3C(=O)C4=O)nn2)C(OC(C)=O)C(OC(C)=O)C1OC(C)=O` (stereo not drawn) [Compound 7]: the inhibition at 5 µM came out at 75.4% in [2] (setting [14]), 73.8% in series [2] (setting [15]) and 76.9% in series [2] (setting [16]).

For the molecule `CC(=O)OCC1OC(OCc2cn(C3C4=C(OC3(C)C)c3ccccc3C(=O)C4=O)nn2)C(OC(C)=O)C(OC(C)=O)C1OC(C)=O` (stereo not drawn) [Compound 8], the results for the inhibition at 5 µM in [2] (setting [14]), in [2] (setting [15]) and in series [2] (setting [16]) were 66.6%, 68.4% and 64.8%, respectively.

In series [3], `COc1ccc(Br)cc1S(=O)(=O)NC(=O)/C=C/c1ccccc1Cc1ccc2ccccc2c1` [Compound L798106, reference compound] showed an IC50 of 0.37 µM.

In turn, `OCCN(CCO)c1nc(N2CCCCC2)c2nc(N(CCO)CCO)nc(N3CCCCC3)c2n1` [Dipyridamole, reference compound] displayed a nHill in series [4] of 1.3.

As to `CC(C)=CCC1=C(O)C(=O)c2ccccc2C1=O` [Lapachol, lapachol, reference compound], the figures for the inhibition at 150 µM in series [2] (setting [14]), in series [2] (setting [15]) and in series [2] (setting [16]) were 87.1%, 84.9% and 89.3%, respectively. The remaining activity at 150 µM in [5] (setting [17]) was -13.1%; in series [5] (setting [18]) it was -13.1%; in series [5] (setting [19]), -13.1%; in series [8] (setting [17]) it was 22.7%; in series [8] (setting [18]), 21.7%; in [8] (setting [19]) it was 22.2%. In addition, the remaining activity at 150 µM in series [9] (setting [17]) was -1.2%; in series [9] (setting [18]), -2.4%; in series [9] (setting [19]), -1.8%; in series [10] (setting [17]), 8%; in series [10] (setting [18]), 5.8%; in series [10] (setting [19]), 6.9%. Also, the remaining activity at 150 µM in series [11] (setting [17]), in series [11] (setting [18]) and in series [11] (setting [19]) was -11.3% each time. For the same molecule, the agonist response (% of control) at 150 µM in series [6] (setting [17]), in series [6] (setting [18]) and in series [6] (setting [19]) was -20.4% in each case. The “Count rate (kcps)” value is 250.6 kcps in [7] (25 µM in H2O + 0.1% DMSO), 198.4 kcps in [7] (50 µM in H2O + 0.1% DMSO) and 882.6 kcps in series [7] (100 µM in H2O + 0.1% DMSO).

On to `CC(Cc1ccc(O)c(O)c1)C(C)Cc1ccc(O)c(O)c1` (stereo not drawn) [NDGA, reference compound], for which, in [2] (control), the nHill came out at 1.5.

`Cn1cc(C2=C(c3cn(CCCSC(=N)N)c4ccccc34)C(=O)NC2=O)c2ccccc21` [Ro-318220, reference compound]: in [12], the nHill is reported as 0.7.

The molecule `Oc1ccc(-c2nc(-c3ccncc3)c(-c3ccc(F)cc3)[nH]2)cc1` [SB202190, reference compound] displayed a nHill in series [13] of 1.3.

What is called inhibition is how much of the control response was suppressed. As a reminder, the IC50 is the concentration at which inhibition is half-maximal. Low values mean greater potency in that assay, high ones weaker potency in that assay.

Values taken from article PMC6138237, “Machine intelligence decrypts β-lapachone as an allosteric 5-lipoxygenase inhibitor” (Chemical Science, 2018).
